# Results reported in patent US20060121180A1, “Metallic structures incorporating bioactive materials and methods for creating the same” (Medlogics Device Corporation, priority 2001, published 2006).
# What was measured:
# [1] = Drug elution from coated stents into physiologic saline solution (spectrophotometric assay); type: physicochemical; conditions: Bx Velocity (316L) and Smart (nitinol) stents with Ni-P coating, physiologic saline changed daily (FIGS. 6 and 7)
# Description: Coated stents were formed using the same basic electroless deposition procedure in Example 1. However, in this example, instead of foil substrates, Johnson and Johnson Bx velocity stents (stainless steel) and Johnson and Johnson Smart stents (nitinol) were used as substrates. Bioactive composite structures in the form of layers were formed on the stents.
# The amounts on the y-axis of the graphs represent the amount of bioactive material remaining on the stent after elution into a physiologic saline solution.
# A similar anodization process as was used in the stent examples as was again applied to the foil substrates. After coating, the coated stent was placed in a physiologic saline solution and the solution changed daily. On the indicated days, the stent coatings were anodized. The amount of bioactive material released in each case was determined using a spectrophotometric assay.
# [2] = Optical absorbance of elution bath from coated 316L stainless steel sample in 0.9% saline; type: physicochemical; conditions: 1 cm2 316L stainless steel sample
# Description: Table 3 depicts several experiments following the general procedures outlined in example 1, each with one time point and for a new bioactive material. M is the difference in absorbance between an elution bath from the sample containing the respective bioactive material and the absorbance from a sample with pure coating (i.e. control). In this instance, a 1 cm2 medical grade 316L stainless steel sample was coated using the above mentioned process.
# M refers to the absorbance difference between coated with bioactive material and coated without bioactive material.
Molecule,time over which appreciable amounts were released [1] [days],"ΔA (absorbance difference, coated with vs without bioactive material) ([2]; Time = 0, immediately after deposition)","ΔA (absorbance difference, coated with vs without bioactive material) ([2]; after seven days in 0.9% saline solution, characteristic absorbance wavelength in parentheses)"
"O=c1[nH]cc(F)c(=O)[nH]1 [Fluorouracil, 5-fluorouracil]",40,–,–
heparin,–,0,2.4 (230 nm)
albumin,40,–,–
